Data set [1] addresses Sphingosine 1-phosphate receptor 1 (Homo sapiens, UniProt P21453). Briefly: Agonist activity at S1P1 receptor (unknown origin) expressed in CHO cells incubated for 2 hrs by HTRF-IP1 assay. Format: cell-based. For orientation: TR-FRET usually uses a lanthanide donor and a delayed reading to cut background.
The target of data set [2] is Sphingosine 1-phosphate receptor 3 (Homo sapiens, UniProt Q99500). The experiment in a line: Agonist activity at S1P3 receptor (unknown origin) expressed in CHO cells incubated for 2 hrs by HTRF-IP1 assay. Format: cell-based.
Chain of Sphingosine 1-phosphate receptor 3 (Q99500 whole entry): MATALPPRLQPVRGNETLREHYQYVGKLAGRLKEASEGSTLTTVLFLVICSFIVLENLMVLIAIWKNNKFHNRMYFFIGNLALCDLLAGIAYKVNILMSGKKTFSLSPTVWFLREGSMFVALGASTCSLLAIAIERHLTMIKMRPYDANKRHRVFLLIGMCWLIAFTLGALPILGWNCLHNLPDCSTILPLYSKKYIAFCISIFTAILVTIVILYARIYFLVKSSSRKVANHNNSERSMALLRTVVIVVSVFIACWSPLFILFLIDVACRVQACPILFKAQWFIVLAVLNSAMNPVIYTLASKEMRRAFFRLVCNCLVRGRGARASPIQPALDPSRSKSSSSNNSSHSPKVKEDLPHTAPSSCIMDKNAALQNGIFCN
Data set [3] concerns Blood. Briefly: Drug metabolism in Sprague-Dawley rat blood assessed as formation of 2-amino-2-(2-(4'-(2-(1-hydroxyethyl)oxazol-4-yl)biphenyl-4-yl)ethyl)propane-1,3-diol hydrochloride at 3 mg/kg, po measured at 0.08 to 48 hrs by LC-MS/MS analysis. Conditions: in vivo. The class given is ADME, organism-based.
The test system of data set [4] is Rattus norvegicus. The experiment in a line: Lymphopenia activity in Sprague-Dawley rat assessed as decrease in lymphocytes in peripheral blood at 3 mg/kg, po after 24 hrs by hematology analyzer. The class given is functional, organism-based.
For data set [5], the system named is Blood. Briefly: Drug level in Sprague-Dawley rat blood assessed as compound formation treated with SYL927 at 3 mg/kg, po measured at 0.08 to 48 hrs by LC-MS/MS analysis. Format: ADME, organism-based. As to conditions: in vivo.
Data set [6] relates to Blood. The experiment in a line: Retention time of compound in Sprague-Dawley rat blood treated with SYL927 at 3 mg/kg, po by LC-MS/MS analysis. As to conditions: in vivo. The class given is ADME, organism-based.
For data set [7], the species on record is Homo sapiens. The experiment in a line: Selectivity ratio of EC50 for S1P3 receptor (unknown origin) to EC50 for S1P1 receptor (unknown origin).
Data set [8] concerns Blood. Briefly: Drug metabolism in Sprague-Dawley rat blood assessed as formation of 2-amino-2-(2-(4'-(2-(2-hydroxypropyl)oxazol-4-yl)biphenyl-4-yl)ethyl)propane-1,3-diol hydrochloride at 3 mg/kg, po measured at 0.08 to 48 hrs by LC-MS/MS analysis. The class given is ADME, organism-based. Conditions: in vivo.
In data set [9] the test system is Blood. Briefly: Drug level in Sprague-Dawley rat blood assessed as compound formation treated with SYL930 at 3 mg/kg, po measured at 0.08 to 48 hrs by LC-MS/MS analysis. Format: ADME, organism-based. As to conditions: in vivo.
Data set [10] relates to Blood. Briefly: Retention time of compound in Sprague-Dawley rat blood treated with SYL930 at 3 mg/kg, po by LC-MS/MS analysis. Format: ADME, organism-based. As to conditions: in vivo.

Activity calls are given as the source filed them. No cut-off for these calls is given here. Some results are limits rather than exact numbers.

One may read the EC50 as the concentration at which the effect is half-maximal.

Chain of Sphingosine 1-phosphate receptor 1 (P21453 whole entry): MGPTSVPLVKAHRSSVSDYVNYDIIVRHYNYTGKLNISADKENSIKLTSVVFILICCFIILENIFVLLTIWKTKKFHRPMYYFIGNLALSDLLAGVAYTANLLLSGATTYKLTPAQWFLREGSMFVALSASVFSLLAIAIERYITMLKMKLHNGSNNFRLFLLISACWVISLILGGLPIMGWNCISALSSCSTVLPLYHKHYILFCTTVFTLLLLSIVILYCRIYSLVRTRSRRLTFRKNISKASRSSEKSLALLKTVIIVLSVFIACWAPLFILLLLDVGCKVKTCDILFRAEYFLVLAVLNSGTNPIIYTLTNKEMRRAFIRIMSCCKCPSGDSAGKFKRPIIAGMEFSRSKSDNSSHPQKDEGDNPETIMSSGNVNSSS

Regarding `CCc1nc(-c2ccc(-c3ccc(CCC(N)(CO)CO)cc3)cc2)co1.Cl`, the EC50 in data set [1] and in data set [2] was over 10000 nM each time. For the same molecule, in [3], the Drug metabolism entry is “metabolite_detected”. Also, in [4], the outcome was Active.
Regarding `CC(O)c1nc(-c2ccc(-c3ccc(CCC(N)(CO)CO)cc3)cc2)co1.Cl` (stereo unspecified), the EC50 in data set [1] and in data set [2] was over 10000 nM each time. The Drug metabolism result in data set [5] is given as “metabolite_detected”. The Retention_time in data set [6] is on record as 6.6 min. The outcome in data set [4] was Active.
Regarding `CCc1nc(-c2ccc(-c3ccc(CCC(N)(CO)COP(=O)(O)O)cc3)cc2)co1` (stereo unspecified), the figures for the EC50 in data set [1] and in data set [2] were 7 nM and 1060 nM, respectively. The Ratio EC50 in data set [7] was found to be 151.
With `CCCc1nc(-c2ccc(-c3ccc(CCC(N)(CO)COP(=O)(O)O)cc3)cc2)co1` (stereo unspecified), the EC50 in data set [1] stood at 13.3 nM; in data set [2] it was 484 nM. Moreover, the Ratio EC50 in data set [7] was determined as 36.
On to `CCCc1nc(-c2ccc(-c3ccc(CCC(N)(CO)CO)cc3)cc2)co1.Cl`, for which the figures for the 50% effective concentration (EC50) in data set [1] and in [2] were 1610 nM and over 10000 nM, respectively. For the same molecule, the Ratio EC50 in data set [7] was over 6. Further, the Drug metabolism entry in data set [8] was “metabolite_detected”. Also, the result in data set [4] was Active.
`CC(O)Cc1nc(-c2ccc(-c3ccc(CCC(N)(CO)CO)cc3)cc2)co1.Cl` (stereo unspecified): the EC50 was 1520 nM in data set [1] and over 10000 nM in data set [2]. Besides, the Ratio EC50 in data set [7] was over 6. Moreover, the Drug metabolism result in data set [9] is reported as “metabolite_detected”. Besides, in data set [4], the result was Active. Also, the Retention_time in [10] is 13 min.

Source of the values: ChEMBL document CHEMBL3779869, “Synthesis, identification, and biological activity of metabolites of two novel selective S1P1 agonists” (Bioorg Med Chem, 2016).
